Measurements reported in patent US20130165641A1, “6,11-BRIDGED BIARYL MACROLIDES” (Enanta Pharmaceuticals, Inc., priority 2007, published 2013).
Values after ≈ are worked out from the molar mass of the structure shown.

Tested on: MRSA
Experiment: MIC by micro-dilution method, MRSA isolates
Type: cell-based, Staphylococcus aureus
Settings: compounds of Formula XVI; for MIC MRSA 7662: MRSA isolate 7662; for MIC MRSA 33591: MRSA isolate 33591
Experimental: Susceptibility tests can be used to quantitatively measure the in vitro activity of an antimicrobial agent against a given bacterial isolate. Compounds are tested for in vitro antibacterial activity by a micro-dilution method. Minimal Inhibitory Concentration (MIC) is determined in 96 well microtiter plates utilizing the appropriate broth medium for the observed bacterial isolates. […] The diluted compounds (2 μl/well) are then transferred into sterile, uninoculated medium (0.2 mL) by use of a 96 fixed tip-pipetting station. The inoculum for each bacterial strain is standardized to approximately 5×10^5 CFU/mL by optical comparison to a 0.5 McFarland turbidity standard. The plates are inoculated with 10 μl/well of adjusted bacterial inoculum. The 96 well plates are covered and incubated at 35+/−2° C. for 24 hours in ambient air environment. Following incubation, plate wells are visually examined by Optical Density measurement for the presence of growth (turbidity). The lowest concentration of an antimicrobial agent at which no visible growth occurs is defined as the MIC.
All in vitro testing follows the guidelines described in the Approved Standards M7-A7 protocol, published by the Clinical Laboratory Standards Institute (CLSI).

Row | Compound | MIC MRSA 7662 | MIC MRSA 33591
1 | CC[C@H]1OC(=O)[C@@](C)(F)C(=O)[C@H](C)[C@@H](O[C@@H]2O[C@H](C)C[C@H](N(C)C)[C@H]2O)[C@@]2(C)C[C@@H](C)C(=NC(C)=O)[C@H](C)[C@@H](OC/C(=N\OCc3ccc(-n4ccc(N)n4)cc3OC)CO2)[C@]1(C)O [Example 99] | 8 µg/mL (≈ 8.86 µM) | 8 µg/mL (≈ 8.86 µM)
2 | CC[C@H]1OC(=O)[C@@](C)(F)C(=O)[C@H](C)[C@@H](O[C@@H]2O[C@H](C)C[C@H](N(C)C)[C@H]2O)[C@@]2(C)C[C@@H](C)C(=NC(=O)C(C)C)[C@H](C)[C@@H](OC/C(=N\OCc3ncc(-c4cccc(N)n4)cn3)CO2)[C@]1(C)O [Example 100] | 8 µg/mL (≈ 8.75 µM) | 8 µg/mL (≈ 8.75 µM)
3 | CCC(=O)N=C1[C@H](C)C[C@@]2(C)OC/C(=N/OCc3cnc(-c4cccc(N)n4)s3)CO[C@H]([C@H]1C)[C@](C)(O)[C@@H](CC)OC(=O)[C@@](C)(F)C(=O)[C@H](C)[C@H]2O[C@@H]1O[C@H](C)C[C@H](N(C)C)[C@H]1O [Example 117] | 2 µg/mL (≈ 2.21 µM) | 4 µg/mL (≈ 4.42 µM)
4 | CCC(=O)N=C1[C@H](C)C[C@@]2(C)OC/C(=N/OCc3ccc(-c4nccc(N)n4)cn3)CO[C@H]([C@H]1C)[C@](C)(O)[C@@H](CC)OC(=O)[C@@](C)(F)C(=O)[C@H](C)[C@H]2O[C@@H]1O[C@H](C)C[C@H](N(C)C)[C@H]1O [Example 113] | 4 µg/mL (≈ 4.44 µM) | 8 µg/mL (≈ 8.89 µM)
5 | C=Cc1cn(-c2ccc(CON=C3COC4C(C)C(=NC(C)=O)C(C)CC(C)(OC3)C(OC3OC(C)CC(N(C)C)C3O)C(C)C(=O)C(C)(F)C(=O)OC(CC)C4(C)O)nc2)nc1N (centres unmarked) [Example 96] | 8 µg/mL (≈ 8.89 µM) | 8 µg/mL (≈ 8.89 µM)
6 | CCC1OC(=O)C(C)(F)C(=O)C(C)C(OC2OC(C)CC(N(C)C)C2O)C2(C)CC(C)C(=NC(=O)C3CC3)C(C)C(OCC(=NOCc3ccc(-n4ccc(N)n4)cc3)CO2)C1(C)O (centres unmarked) [Example 93] | 8 µg/mL (≈ 8.9 µM) | 8 µg/mL (≈ 8.9 µM)
7 | CCC1OC(=O)C(C)(F)C(=O)C(C)C(OC2OC(C)CC(N(C)C)C2O)C2(C)CC(C)C(=NC(C)=O)C(C)C(OCC(=NOCc3ccc(-c4cccc(N)n4)cn3)CO2)C1(C)O (centres unmarked) [Example 74] | 8 µg/mL (≈ 9.04 µM) | 8 µg/mL (≈ 9.04 µM)
8 | CCC1OC(=O)C(C)(F)C(=O)C(C)C(OC2OC(C)CC(N(C)C)C2O)C2(C)CC(C)C(=NC(=O)C3CC3)C(C)C(OCC(=NOCc3ccc(-c4cccc(N)n4)cn3)CO2)C1(C)O (centres unmarked) [Example 77] | 8 µg/mL (≈ 8.78 µM) | 8 µg/mL (≈ 8.78 µM)
9 | CCC(=O)N=C1C(C)CC2(C)OCC(=NOCc3ccc(-c4cccc(N)n4)cn3)COC(C1C)C(C)(O)C(CC)OC(=O)C(C)(F)C(=O)C(C)C2OC1OC(C)CC(N(C)C)C1O (centres unmarked) [Example 75] | 4 µg/mL (≈ 4.45 µM) | 4 µg/mL (≈ 4.45 µM)
10 | CC[C@H]1OC(=O)[C@@](C)(F)C(=O)[C@H](C)[C@@H](O[C@@H]2O[C@H](C)C[C@H](N(C)C)[C@H]2O)[C@@]2(C)C[C@@H](C)C(=NC(=O)C3CC3)[C@H](C)[C@@H](OC/C(=N\OCc3ncc(-c4cccc(N)n4)s3)CO2)[C@]1(C)O [Example 112] | 4 µg/mL (≈ 4.36 µM) | 8 µg/mL (≈ 8.72 µM)
11 | CC[C@H]1OC(=O)[C@@](C)(F)C(=O)[C@H](C)[C@@H](O[C@@H]2O[C@H](C)C[C@H](N(C)C)[C@H]2O)[C@@]2(C)C[C@@H](C)C(=NC(=O)C(C)C)[C@H](C)[C@@H](OC/C(=N\OCc3ccc(-n4ccc(N)n4)cc3Cl)CO2)[C@]1(C)O [Example 116] | 4 µg/mL (≈ 4.28 µM) | 4 µg/mL (≈ 4.28 µM)
12 | CC[C@H]1OC(=O)[C@@](C)(F)C(=O)[C@H](C)[C@@H](O[C@@H]2O[C@H](C)C[C@H](N(C)C)[C@H]2O)[C@@]2(C)C[C@@H](C)C(=NC(=O)C(C)C)[C@H](C)[C@@H](OC/C(=N\OCc3coc(-c4cccc(N)n4)n3)CO2)[C@]1(C)O [Example 118] | 4 µg/mL (≈ 4.43 µM) | 8 µg/mL (≈ 8.86 µM)
13 | CCC1OC(=O)C(C)(F)C(=O)C(C)C(OC2OC(C)CC(N(C)C)C2O)C2(C)CC(C)C(=NC(=O)C(C)C)C(C)C(OCC(=NOCc3ccc(-n4ccc(N)n4)nc3)CO2)C1(C)O (centres unmarked) [Example 86] | 4 µg/mL (≈ 4.43 µM) | 4 µg/mL (≈ 4.43 µM)

Next, values leading:

Row | MIC MRSA 7662 | MIC MRSA 33591 | Compound
14 | 4.00 µg/mL (≈ 4.42 µM) | 8.00 µg/mL (≈ 8.84 µM) | CCC(=O)N=C1[C@H](C)C[C@@]2(C)OC/C(=N/OCc3ccc(-c4nc(N)cs4)nc3)CO[C@H]([C@H]1C)[C@](C)(O)[C@@H](CC)OC(=O)[C@@](C)(F)C(=O)[C@H](C)[C@H]2O[C@@H]1O[C@H](C)C[C@H](N(C)C)[C@H]1O [Example 128]
15 | 4 µg/mL (≈ 4.42 µM) | 4 µg/mL (≈ 4.42 µM) | CCC(=O)N=C1[C@H](C)C[C@@]2(C)OC/C(=N/OCc3ccc(-c4nc(N)cs4)cc3)CO[C@H]([C@H]1C)[C@](C)(O)[C@@H](CC)OC(=O)[C@@](C)(F)C(=O)[C@H](C)[C@H]2O[C@@H]1O[C@H](C)C[C@H](N(C)C)[C@H]1O [Example 120]
16 | 4.00 µg/mL (≈ 4.42 µM) | 4.00 µg/mL (≈ 4.42 µM) | CCC(=O)N=C1[C@H](C)C[C@@]2(C)OC/C(=N/OCc3ccc(-c4csc(N)n4)cc3)CO[C@H]([C@H]1C)[C@](C)(O)[C@@H](CC)OC(=O)[C@@](C)(F)C(=O)[C@H](C)[C@H]2O[C@@H]1O[C@H](C)C[C@H](N(C)C)[C@H]1O [Example 122]
17 | 4 µg/mL (≈ 4.41 µM) | 4 µg/mL (≈ 4.41 µM) | CCC(=O)N=C1[C@H](C)C[C@@]2(C)OC/C(=N/OCc3ccc(-c4nsc(N)n4)cn3)CO[C@H]([C@H]1C)[C@](C)(O)[C@@H](CC)OC(=O)[C@@](C)(F)C(=O)[C@H](C)[C@H]2O[C@@H]1O[C@H](C)C[C@H](N(C)C)[C@H]1O [Example 123]
18 | 1.00 µg/mL (≈ 1.09 µM) | 2.00 µg/mL (≈ 2.18 µM) | CC[C@H]1OC(=O)[C@@](C)(F)C(=O)[C@H](C)[C@@H](O[C@@H]2O[C@H](C)C[C@H](N(C)C)[C@H]2O)[C@@]2(C)C[C@@H](C)C(=NC(=O)C(C)C)[C@H](C)[C@@H](OC/C(=N\OCc3csc(-c4cccc(N)n4)n3)CO2)[C@]1(C)O [Example 137]
19 | 2.00 µg/mL (≈ 2.21 µM) | 4.00 µg/mL (≈ 4.42 µM) | CCC(=O)N=C1[C@H](C)C[C@@]2(C)OC/C(=N/OCc3ccc(-c4nsc(N)n4)cc3)CO[C@H]([C@H]1C)[C@](C)(O)[C@@H](CC)OC(=O)[C@@](C)(F)C(=O)[C@H](C)[C@H]2O[C@@H]1O[C@H](C)C[C@H](N(C)C)[C@H]1O [Example 127]
20 | 4 µg/mL (≈ 4.51 µM) | 8 µg/mL (≈ 9.02 µM) | CCC(=O)N=C1[C@H](C)C[C@@]2(C)OC/C(=N/OCc3ccc(-c4nc(N)cs4)cn3)CO[C@H]([C@H]1C)[C@](C)(O)[C@@H](CC)OC(=O)[C@H](C)C(=O)[C@H](C)[C@H]2O[C@@H]1O[C@H](C)C[C@H](N(C)C)[C@H]1O [Example 119]
21 | 4.00 µg/mL (≈ 4.41 µM) | 8.00 µg/mL (≈ 8.83 µM) | CCC(=O)N=C1[C@H](C)C[C@@]2(C)OC/C(=N/OCc3cnc(-c4nccc(N)n4)s3)CO[C@H]([C@H]1C)[C@](C)(O)[C@@H](CC)OC(=O)[C@@](C)(F)C(=O)[C@H](C)[C@H]2O[C@@H]1O[C@H](C)C[C@H](N(C)C)[C@H]1O [Example 131]
22 | 2.00 µg/mL (≈ 2.24 µM) | 2.00 µg/mL (≈ 2.24 µM) | CC[C@H]1OC(=O)[C@@](C)(F)C(=O)[C@H](C)[C@@H](O[C@@H]2O[C@H](C)C[C@H](N(C)C)[C@H]2O)[C@@]2(C)C[C@@H](C)C(=NC(C)=O)[C@H](C)[C@@H](OC/C(=N\OCc3csc(-c4cccc(N)n4)n3)CO2)[C@]1(C)O [Example 136]
